Test results: patent publication US20220226342A1, “COMPOSITIONS AND METHODS OF TREATING LIVER CANCERS” (The Johns Hopkins University, priority 2019, published 2022)

Legend:
[1] = test system: HCC 24; test: IC50 in PDO line; format: cell-based; conditions: Homo sapiens
Experimental: (§1) The inventors tested omacetaxine at decreasing concentrations (10 μM, 1 μM, 100 nM, 10 nM and 1 nM) to calculate the half-maximal inhibitory concentration (IC50). […] The IC50 value for each of the 40 HCC PDO lines can be found in Table 2.

[2] = test system: HCC 25-1; test: IC50 in PDO line; format: cell-based; conditions: Homo sapiens
Experimental: as §1

[3] = test system: HCC 25-2; test: IC50 in PDO line; format: cell-based; conditions: Homo sapiens
Experimental: as §1

[4] = test system: HCC 25-3; test: IC50 in PDO line; format: cell-based; conditions: Homo sapiens
Experimental: as §1

[5] = test system: HCC 26-2; test: IC50 in PDO line; format: cell-based; conditions: Homo sapiens
Experimental: as §1

[6] = test system: HCC 26-3; test: IC50 in PDO line; format: cell-based; conditions: Homo sapiens
Experimental: as §1

[7] = test system: HCC 26-4; test: IC50 in PDO line; format: cell-based; conditions: Homo sapiens
Experimental: as §1

[8] = test system: HCC 26-6; test: IC50 in PDO line; format: cell-based; conditions: Homo sapiens
Experimental: as §1

[9] = test system: HCC 26-7; test: IC50 in PDO line; format: cell-based; conditions: Homo sapiens
Experimental: as §1

[10] = test system: HCC 26-8; test: IC50 in PDO line; format: cell-based; conditions: Homo sapiens
Experimental: as §1

[11] = test system: HCC 34-3; test: IC50 in PDO line; format: cell-based; conditions: Homo sapiens
Experimental: as §1

[12] = test system: HCC 37; test: IC50 in PDO line; format: cell-based; conditions: Homo sapiens
Experimental: as §1

[13] = test system: HCC 57; test: IC50 in PDO line; format: cell-based; conditions: Homo sapiens
Experimental: as §1

[14] = test system: HCC 59; test: IC50 in PDO line; format: cell-based; conditions: Homo sapiens
Experimental: as §1

[15] = test system: HCC 65-3; test: IC50 in PDO line; format: cell-based; conditions: Homo sapiens
Experimental: as §1

[16] = test system: HCC 67-2; test: IC50 in PDO line; format: cell-based; conditions: Homo sapiens
Experimental: as §1

[17] = test system: HCC 71-1; test: IC50 in PDO line; format: cell-based; conditions: Homo sapiens
Experimental: as §1

[18] = test system: HCC 76; test: IC50 in PDO line; format: cell-based; conditions: Homo sapiens
Experimental: as §1

[19] = test system: HCC 77; test: IC50 in PDO line; format: cell-based; conditions: Homo sapiens
Experimental: as §1

[20] = test system: HCC 80-1; test: IC50 in PDO line; format: cell-based; conditions: Homo sapiens
Experimental: as §1

[21] = test system: HCC 80-4; test: IC50 in PDO line; format: cell-based; conditions: Homo sapiens
Experimental: as §1

[22] = test system: HCC 80-5; test: IC50 in PDO line; format: cell-based; conditions: Homo sapiens
Experimental: as §1

[23] = test system: HCC 83-2; test: IC50 in PDO line; format: cell-based; conditions: Homo sapiens
Experimental: as §1

[24] = test system: HCC 83-3; test: IC50 in PDO line; format: cell-based; conditions: Homo sapiens
Experimental: as §1

[25] = test system: 6 HCC PDO lines; test: FACS analysis of Ki67 protein; format: cell-based, human; conditions: all 6 HCC PDO lines tested
Experimental: FIG. 4A-4D. Proliferation assay of HCC PDOs treated with omacetaxine in vitro. […] (4B and 4D).Ki67 expression from 6 HCC PDO lines treated with omacetaxine were analyzed with flow cytometry. […] The effects on proliferation were assessed to elucidate the omacetaxine mechanisms of action. […] To further understand the effects of omacetaxine on cancer cell proliferation and cell cycle, the inventors performed FACS analysis of Ki67 protein. Ki-67 is a nuclear protein expressed in proliferating cells (in all phases of the cell cycle except G0)^22,23. Furthermore, the higher expression of Ki67 has been linked to poorer disease free survival and overall survival in HCC^24. […] As caspase 3 is a key molecule in apoptosis, the inventors measured its activated (cleaved) fragment.

[26] = test system: global protein synthesis in 6 HCC PDOs; test: OP-Puro incorporation assay (EZClick Global Protein Synthesis Assay); format: cell-based, human
Description: FIG. 3A-3H. Mechanism of Omacetaxine action on different HCC patient derived organoids lines. (3A). […] (3B). […] (3C) The mean fluorescence intensity ratio reflected protein synthesis rate of the plots data in (a). (3D-3H).

[27] = test system: MET; test: oncoprotein staining of HCC PDX tumor frozen sections; format: in vivo, human; conditions: HCC PDX tumor (50 HCC PDX) vs control
Description: (§2) FIG. 8A-8G. Omacetaxine inhibits tumor cell proliferation and increases apoptosis and suppressed HCC oncoprotein expression in vivo. (8A-8D) Immunofluorescent staining of Ki67 and cleaved caspase 3 expression in 26-3 PDX model. 8A-8B show the IF staining pictures, 8C-8D show the relative Ki67 or cleaved caspase 3 positive cell number in omacetaxine treated mice compared with control treatment groups. (8E-8G) Omacetaxine suppressed HCC oncoprotein: c-Myc, Beta-catenin and MET protein expression in 50 HCC PDX treated with Omacetaxine vs control.
(§3) Tumor masses from HCC PDX mice treated with omacetaxine and negative control, respectively, were utilized to prepare frozen sections, which were then stained for the c-Myc, MET and beta-catenin.

[28] = test system: beta-catenin; test: as above; format: in vivo, human; conditions: HCC PDX tumor (50 HCC PDX) vs control
Description: as §2, §3

[29] = test system: c-Myc; test: as above; format: in vivo, human; conditions: HCC PDX tumor (50 HCC PDX) vs control
Description: as §2, §3

[30] = FDA approved dosage, cited from earlier work
[31] = test system: PDX50; test: HCC patient derived xenograft model PDX50
Description: P<0.001. Error bars represent Mean±standard deviation. Not significant (NS).
The second model, PDX50, was established by directly implanting pieces of the fresh human HCC tumor into NSG mice. After initial implantation, PDX50 is perpetuated similarly to PDX26-3. […] PDX50 is less aggressive—mice continue to be active, to eat and function normally, in spite of very large tumors. Therefore, PDX50 is not ideal for survival determinations.

SMILES: COC(=O)C[C@](O)(CCCC(C)(C)O)C(=O)O[C@@H]1C(OC)=C[C@]23CCCN2CCc2cc4c(cc2[C@H]13)OCO4 [omacetaxine, omacetaxine mepusuccinate]
- IC50 [1]: 148 nM
- IC50 [2]: 37.4 nM
- IC50 [3]: 11.7 nM
- IC50 [4]: 60.1 nM
- IC50 [5]: 118 nM
- IC50 [6]: 27.8 nM
- IC50 [7]: 33.5 nM
- IC50 [8]: 80.8 nM
- IC50 [9]: 1.41 nM
- IC50 [10]: 37.8 nM
- IC50 [11]: 37.7 nM
- IC50 [12]: 3.52 nM
- IC50 [13]: 14.1 nM
- IC50 [14]: 21.2 nM
- IC50 [15]: 2.26 nM
- IC50 [16]: 12.8 nM
- IC50 [17]: 7.29 nM
- IC50 [18]: 35.5 nM
- IC50 [19]: 46.1 nM
- IC50 [20]: 80.1 nM
- IC50 [21]: 3.18 nM
- IC50 [22]: 27.6 nM
- IC50 [23]: 19.2 nM
- IC50 [24]: 8.85 nM
- expression of Ki67 [25]: reduces the expression of Ki67
- global protein synthesis ([26]; 150 nM and 700 nM, 6 HCC PDOs, 36 h): drastically inhibited global protein synthesis
- protein synthesis inhibition at 700 nM compared with 150 nM ([26]; 700 nM vs 150 nM): did not induce any further inhibition of protein synthesis
- MET expression in vivo [27]: downregulated
- beta-catenin expression in vivo [28]: downregulated
- c-Myc expression in vivo [29]: downregulated
- infectious complications, share of patients [30]: approximately 5%
- main side effects ([30]; patients): hematologic depletion (thrombocytopenia, anemia, and neutropenia) and diarrhea
- body mass of mice, treatment vs. control group [31]: no difference in the body mass
- tumor growth ([31]; PDX50 mice, treatment applied directly into the tumor): halting of tumor growth
